# Values joined by “and” are separate entries in the source; they are usually repeats but may differ in a detail not shown here. Equal entries are not always repeated.
# Key:
# ob-ZSF1 rats = assay: Example 5: preclinical study of hypotensive synergy, mean arterial pressure; format: in vivo, rat
# Description: In the example, a preclinical animal model is used to evaluate whether atrasentan and an ARB cause a synergistic hypotensive effect.
# ETAR = target: T1, ETAR (Homo sapiens, UniProt P25101); assay: Example 6: receptor occupancy data overlaid on edema risk
# T1 construct: Instead it rises proportionally across the ETAR receptor occupancy curve
# T1 sequence (P25101 21-427): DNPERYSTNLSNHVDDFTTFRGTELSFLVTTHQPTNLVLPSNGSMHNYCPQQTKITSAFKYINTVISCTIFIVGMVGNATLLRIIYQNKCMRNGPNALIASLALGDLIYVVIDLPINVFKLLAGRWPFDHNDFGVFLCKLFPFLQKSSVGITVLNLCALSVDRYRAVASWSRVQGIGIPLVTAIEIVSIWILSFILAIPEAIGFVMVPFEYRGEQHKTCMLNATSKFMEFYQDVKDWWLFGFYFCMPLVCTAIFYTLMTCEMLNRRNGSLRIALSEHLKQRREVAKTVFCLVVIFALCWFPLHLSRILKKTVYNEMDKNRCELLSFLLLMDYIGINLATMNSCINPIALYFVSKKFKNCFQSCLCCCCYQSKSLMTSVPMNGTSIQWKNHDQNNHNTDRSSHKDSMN
# [1] = test system: subjects with type 2 diabetes and nephropathy; assay: Example 1: Phase 2b randomized, double-blind, placebo-controlled 12-week clinical study; conditions: for Weight, LS Mean Change from Baseline (SE): Week 12; for UACR Change from Baseline LS Mean (SE) / UACR Geometric Mean Change (Percent): baseline to final on-treatment measurement
# Description: The primary efficacy endpoint was the change from baseline to Week 12 in log-transformed UACR with the primary analysis conducted using mixed-effects, maximum likelihood, repeated measures (MMRM) with fixed effects for treatment, country, visit, and treatment-by-visit interaction, with baseline measurement and baseline-by-visit interaction as covariates.
# All safety analyses were performed on treatment-emergent adverse events only. Treatment-emergent adverse events were defined as those that first occurred or worsened on or after the date of first dose of study drug through 30 days after the last dose of study drug.
compound,measurement,setting,value
"CCCCN(CCCC)C(=O)CN1C[C@H](c2ccc3c(c2)OCO3)[C@@H](C(=O)O)[C@@H]1c1ccc(OC)cc1 [Atrasentan, (2R,3R,4S)-4-(1,3-benzodioxol-5-yl)-1-[2-(dibutylamino)-2-oxoethyl]-2-(4-methoxyphenyl)pyrrolidine-3-carboxylic acid]",decrease in MAP,ob-ZSF1 rats; 1.5 mg/kg/day combined with losartan (10 mg/kg/day),approximately the same as the decrease in MAP when losartan was administered alone
same,mean arterial pressure (MAP),ob-ZSF1 rats; alone at 1.5 mg/kg/day or 5 mg/kg/day,did not significantly affect mean arterial pressure
same,Receptor Occupancy,ETAR; Dose 0.25 mg,25%
same,Receptor Occupancy,ETAR; Dose 0.75 mg,47%
same,Receptor Occupancy,ETAR; Dose 1.75 mg,67%
same,Any adverse event,"[1]; 0.75 mg, N = 59",37 (62.7) N (%) of Subjects
same,Any adverse event leading to discontinuation of study drug,"[1]; 0.75 mg, N = 59",5 (8.5) N (%) of Subjects
same,Death,"[1]; 0.75 mg, N = 59",0 N (%) of Subjects
same,Fatal adverse event,"[1]; 0.75 mg, N = 59",0 N (%) of Subjects
same,Possibly or probably drug-related adverse event,"[1]; 0.75 mg, N = 59",16 (27.1) N (%) of Subjects
same,Serious adverse event,"[1]; 0.75 mg, N = 59",4 (6.8) N (%) of Subjects
same,Severe adverse event,"[1]; 0.75 mg, N = 59",5 (8.5) N (%) of Subjects
same,"Cholesterol, Difference (95% CI) from placebo",[1]; 0.75 mg/day,"−14.1 (−28.65, 0.53) mg/dL"
same,"Cholesterol, Final On-Treatment Visit Mean (SD)",[1]; 0.75 mg/day,148.9 (36.93) mg/dL
same,"Cholesterol, LS Mean Change from Baseline (SE)",[1]; 0.75 mg/day,−13.0 (3.93) mg/dL
same,"HDL-C, Difference (95% CI) from placebo",[1]; 0.75 mg/day,"0.2 (−3.68, 4.13) mg/dL"
same,"HDL-C, Final On-Treatment Visit Mean (SD)",[1]; 0.75 mg/day,42.1 (12.06) mg/dL
same,"HDL-C, LS Mean Change from Baseline (SE)",[1]; 0.75 mg/day,−2.2 (1.05) mg/dL
same,Had ≧30% Reduction in UACR and No Edema (no moderate or severe adverse event of edema),[1]; 0.75 mg/day,27 (47.4) Number (%) of Subjects
same,"Hemoglobin, Difference (95% CI) from placebo",[1]; 0.75 mg/day,"−0.94 (−1.423, −0.450) g/dL"
same,"Hemoglobin, LS Mean Change from Baseline (SE)",[1]; 0.75 mg/day,−0.97 (0.126) g/dL
same,"LDL-C, Difference (95% CI) from placebo",[1]; 0.75 mg/day,"−12.5 (−23.56, −1.41) mg/dL"
same,"LDL-C, Final On-Treatment Visit Mean (SD)",[1]; 0.75 mg/day,71.4 (27.39) mg/dL
same,"LDL-C, LS Mean Change from Baseline (SE)",[1]; 0.75 mg/day,−10.3 (3.01) mg/dL
same,Percentage of Subjects with ≧30% Reduction in Log-Transformed UACR from Baseline to Final Measurement,[1]; 0.75 mg/day,50.9%
same,Percentage of Subjects with ≧40% Reduction in Log-Transformed UACR from Baseline to Final Measurement,[1]; 0.75 mg/day,38.6%
same,Percentage of Subjects with ≧50% Reduction in Log-Transformed UACR from Baseline to Final Measurement,[1]; 0.75 mg/day,29.8%
same,"Triglycerides, Difference (95% CI) from placebo",[1]; 0.75 mg/day,"−37.6 (−97.24, 22.01) mg/dL"
same,"Triglycerides, Final On-Treatment Visit Mean (SD)",[1]; 0.75 mg/day,179.9 (101.27) mg/dL
same,"Triglycerides, LS Mean Change from Baseline (SE)",[1]; 0.75 mg/day,−4.3 (16.05) mg/dL
same,"Weight, Difference (95% CI) from placebo",[1]; 0.75 mg/day,"−0.1 (−2.32, 2.07) kg"
same,"Weight, Final On-Treatment Visit Mean (SD)",[1]; 0.75 mg/day,93.0 (21.28) kg
same,decrease in weight at Week 12,[1]; 0.75 mg/day,0.8 kg
same,"diastolic blood pressure, mean change from baseline to last on-treatment visit",[1]; 0.75 mg/day,−1.49 mmHg
same,direct effect on change in UACR (path analysis vs change in systolic blood pressure),[1]; 0.75 mg/day,97.52%
same,fatigue leading to discontinuation,[1]; 0.75 mg/day,1.7%
same,"geometric mean reduction in UACR, baseline to final on-treatment measurement",[1]; 0.75 mg/day,37.7%
same,incidence of anemia,[1]; 0.75 mg/day,6.8%
same,incidence of peripheral edema,[1]; 0.75 mg/day,32.2%
same,mean changes in weight vs placebo (repeated-measures analysis),[1]; 0.75 mg/day,statistically significantly different from placebo only at Week 2
same,"mean diastolic blood pressure, difference from baseline",[1]; 0.75 mg/day,"statistically significant at Weeks 1, 4, and 6"
same,"mean systolic blood pressure, difference from baseline",[1]; 0.75 mg/day,statistically significant at Week 4
same,peripheral edema leading to discontinuation,[1]; 0.75 mg/day,3.4%
same,subjects discontinued because of an adverse event,[1]; 0.75 mg/day,5 subjects
same,subjects discontinued prematurely from the study,[1]; 0.75 mg/day,13.6%
same,subjects who discontinued study drug because of adverse events,[1]; 0.75 mg/day,8.5%
same,subjects with adverse event infection,[1]; 0.75 mg/day,3.4%
same,"systolic blood pressure, mean change from baseline to last on-treatment visit",[1]; 0.75 mg/day,−2.44 mmHg
same,"weight, mean change from baseline to last on-treatment visit",[1]; 0.75 mg/day,-1.20 kg
same,UACR Between-group Comparison Difference (90% CI),[1]; 0.75 mg/day vs placebo,"−0.47 (−0.71, −0.22)"
same,"Weight, LS Mean Change from Baseline (SE)",[1]; 0.75 mg/day,−0.8 (0.69) kg
same,UACR Change from Baseline LS Mean (SE),[1]; 0.75 mg/day,−0.47 (0.12) log mg/g creatinine
same,UACR Geometric Mean Change (Percent),[1]; 0.75 mg/day,−37.77%
same,Any adverse event,"[1]; 1.25 mg, N = 64",47 (73.4) N (%) of Subjects
same,Any adverse event leading to discontinuation of study drug,"[1]; 1.25 mg, N = 64",7 (10.9) N (%) of Subjects
same,Death,"[1]; 1.25 mg, N = 64",0 N (%) of Subjects
same,Fatal adverse event,"[1]; 1.25 mg, N = 64",0 N (%) of Subjects
same,Possibly or probably drug-related adverse event,"[1]; 1.25 mg, N = 64",27 (42.2) N (%) of Subjects
same,Serious adverse event,"[1]; 1.25 mg, N = 64",4 (6.3) N (%) of Subjects
same,Severe adverse event,"[1]; 1.25 mg, N = 64",1 (1.6) N (%) of Subjects
same,"Cholesterol, Difference (95% CI) from placebo",[1]; 1.25 mg/day,"−17.2 (−31.60, −2.88) mg/dL"
same,"Cholesterol, Final On-Treatment Visit Mean (SD)",[1]; 1.25 mg/day,147.6 (33.53) mg/dL
same,"Cholesterol, LS Mean Change from Baseline (SE)",[1]; 1.25 mg/day,−16.2 (3.75) mg/dL
same,"HDL-C, Difference (95% CI) from placebo",[1]; 1.25 mg/day,"2.2 (−1.61, 6.08) mg/dL"
same,"HDL-C, Final On-Treatment Visit Mean (SD)",[1]; 1.25 mg/day,43.4 (10.51) mg/dL
same,"HDL-C, LS Mean Change from Baseline (SE)",[1]; 1.25 mg/day,−0.2 (1.00) mg/dL
same,Had ≧30% Reduction in UACR and No Edema (no moderate or severe adverse event of edema),[1]; 1.25 mg/day,28 (45.9) Number (%) of Subjects
same,"Hemoglobin, Difference (95% CI) from placebo",[1]; 1.25 mg/day,"−0.98 (−1.462, −0.505) g/dL"
same,"Hemoglobin, Final On-Treatment Visit Mean (SD)",[1]; 1.25 mg/day,11.79 (1.702) g/dL
same,"Hemoglobin, LS Mean Change from Baseline (SE)",[1]; 1.25 mg/day,−1.02 (0.120) g/dL
same,"LDL-C, Difference (95% CI) from placebo",[1]; 1.25 mg/day,"−13.1 (−23.98, −2.29) mg/dL"
same,"LDL-C, Final On-Treatment Visit Mean (SD)",[1]; 1.25 mg/day,69.5 (22.54) mg/dL
same,"LDL-C, LS Mean Change from Baseline (SE)",[1]; 1.25 mg/day,−11.0 (2.83) mg/dL
same,Percentage of Subjects with ≧30% Reduction in Log-Transformed UACR from Baseline to Final Measurement,[1]; 1.25 mg/day,52.5%
same,Percentage of Subjects with ≧40% Reduction in Log-Transformed UACR from Baseline to Final Measurement,[1]; 1.25 mg/day,36.1%
same,Percentage of Subjects with ≧50% Reduction in Log-Transformed UACR from Baseline to Final Measurement,[1]; 1.25 mg/day,29.5%
same,"Triglycerides, Difference (95% CI) from placebo",[1]; 1.25 mg/day,"−64.6 (−123.32, −5.97) mg/dL"
same,"Triglycerides, Final On-Treatment Visit Mean (SD)",[1]; 1.25 mg/day,167.4 (84.98) mg/dL
same,"Triglycerides, LS Mean Change from Baseline (SE)",[1]; 1.25 mg/day,−31.4 (15.31) mg/dL
same,"Weight, Final On-Treatment Visit Mean (SD)",[1]; 1.25 mg/day,92.6 (18.74) kg
same,"diastolic blood pressure, mean change from baseline to last on-treatment visit",[1]; 1.25 mg/day,−2.74 mmHg
same,fatigue leading to discontinuation,[1]; 1.25 mg/day,3.1%
same,"geometric mean reduction in UACR, baseline to final on-treatment measurement",[1]; 1.25 mg/day,40.7%
same,incidence of anemia,[1]; 1.25 mg/day,4.7%
same,incidence of peripheral edema,[1]; 1.25 mg/day,42.2%
same,"mean diastolic blood pressure, difference from baseline",[1]; 1.25 mg/day,statistically significant from Weeks 1 through 10
same,mean increases in weight vs placebo (repeated-measures analysis),[1]; 1.25 mg/day,statistically significantly different from the mean changes with placebo from Week 1 through Week 8
same,"mean systolic blood pressure, difference from baseline",[1]; 1.25 mg/day,"statistically significant at Weeks 1, 8, and 10"
same,peripheral edema leading to discontinuation,[1]; 1.25 mg/day,4.7%
same,subjects discontinued because of an adverse event,[1]; 1.25 mg/day,7 subjects
same,subjects discontinued prematurely from the study,[1]; 1.25 mg/day,15.6%
same,subjects who discontinued study drug because of adverse events,[1]; 1.25 mg/day,10.9%
same,subjects with adverse event infection,[1]; 1.25 mg/day,0%
same,"systolic blood pressure, mean change from baseline to last on-treatment visit",[1]; 1.25 mg/day,−2.98 mmHg
same,"triglycerides, difference from placebo",[1]; 1.25 mg/day,statistically significant
same,"weight, mean change from baseline to last on-treatment visit",[1]; 1.25 mg/day,2.02 kg
same,UACR Between-group Comparison Difference (90% CI),[1]; 1.25 mg/day vs placebo,"−0.51 (−0.75, −0.28)"
same,"mean ambulatory systolic blood pressure, difference from placebo","[1]; 1.25 mg/day, Week 6",statistically significant difference
same,"Weight, LS Mean Change from Baseline (SE)",[1]; 1.25 mg/day,0.6 kg and 0.6 (0.66) kg
same,UACR Change from Baseline LS Mean (SE),[1]; 1.25 mg/day,−0.52 (0.11) log mg/g creatinine
same,UACR Geometric Mean Change (Percent),[1]; 1.25 mg/day,−40.67%
same,mean HDL-C change,"[1]; all treatment groups, change not clinically meaningful",decreased slightly
same,hemoglobin relative to placebo,"[1]; both atrasentan groups, at Week 2 and throughout the study",Statistically significantly mean decreases
